# Values joined by “and” are separate entries in the source; they are usually repeats but may differ in a detail not shown here. Identical values can stand only once. Like-named read-outs stand apart in the source and are kept apart here.
# Legend:
# [1] = target: T1, human CHK1 (FL-CHK1) (Homo sapiens, UniProt O14757); assay: CHK1 coupled spectrophotometric assay; type: biochemical; details: Table 1; read-out: CHK -1* (Ki)
# T1 construct: C-terminally His-tagged full-length human CHK1 (FL-CHK1) was expressed using the baculovirus/insect cell system; made in house; host or cells: baculovirus/insect cell system
# T1 sequence (O14757 1-476): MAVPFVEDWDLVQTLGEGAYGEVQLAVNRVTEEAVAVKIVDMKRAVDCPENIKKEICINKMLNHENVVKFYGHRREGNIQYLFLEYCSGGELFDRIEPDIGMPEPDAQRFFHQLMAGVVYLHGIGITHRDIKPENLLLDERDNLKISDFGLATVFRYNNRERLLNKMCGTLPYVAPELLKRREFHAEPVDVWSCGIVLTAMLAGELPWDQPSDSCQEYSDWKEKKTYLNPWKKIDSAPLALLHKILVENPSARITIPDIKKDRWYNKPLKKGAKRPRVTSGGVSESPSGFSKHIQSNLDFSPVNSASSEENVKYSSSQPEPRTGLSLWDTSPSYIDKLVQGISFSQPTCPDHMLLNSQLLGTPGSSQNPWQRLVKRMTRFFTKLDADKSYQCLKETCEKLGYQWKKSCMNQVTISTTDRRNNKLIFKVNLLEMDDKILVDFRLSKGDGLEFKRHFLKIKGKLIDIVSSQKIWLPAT
# From the text: CHK1 Construct for Assay: C-terminally His-tagged full-length human CHK1 (FL-CHK1) was expressed using the baculovirus/insect cell system. […] The protein was purified by conventional chromatographic techniques.
# The production of ADP from ATP that accompanies phosphoryl transfer to the synthetic substrate peptide Syntide-2 ([…]) was coupled to oxidation of NADH using phosphoenolpyruvate (PEP) through the actions of pyruvate kinase (PK) and lactic dehydrogenase (LDH). The oxidation of NADH was monitored by following the decrease of absorbance at 340 nm (∈340 = 6.22 cm^-1 mM^-1) using a HP8452 spectrophotometer. […] Assays were initiated with 10 nM of FL-CHK1. Ki values were determined by measuring initial enzyme activity in the presence of varying concentrations of test compounds. The data were analyzed using Enzyme Kinetic and Kaleidagraph software.
# [2] = target: T2, phosphorylated Tie-2 (aa 775-1122) (Homo sapiens, UniProt Q02763); assay: TIE-2 spectrophotometric assay; type: biochemical; details: read-out: % Inhibition @ 1 µM Tie2-P
# T2 construct: 4 to 12 nM phosphorylated Tie-2 (aa 775-1122); made in house; host or cells: insect cells
# Protocol: This construct also carries a R774M mutation, which serves as the initiating methionine residue in translation.
# The kinase-catalyzed production of ADP from ATP that accompanies phosphoryl transfer to the random copolymer poly(Glu4 Tyr) was coupled to the oxidation of NADH through the activities of pyruvate kinase (PK) and lactate dehydrogenase (LDH). NADH conversion to NAD* was monitored by the decrease in absorbance at 340 nm (ε = 6.22 cm^-1mM^-1) using a Beckman DU650 spectrophotometer. Typical reaction solutions contained 1 mM phosphoenolpyruvate, 0.24 mM NADH, 40 mM MgCl2, 5 mM DTT, 2.9 mg/mL poly(Glu4Tyr), 0.5 mM ATP, 15 units/mL PK, 15 units/mL LDH in 100 mM HEPES, pH 7.5. […]
# [3] = target: human FGF-R1 (Homo sapiens, UniProt P11362, C488A/C584S/L457V); assay: FGF-R spectrophotometric assay; type: biochemical; details: Table 1; compound concentration 1 µM; read-out: FGF-P* (% inhibition)
# Protocol: The spectrophotometric assay was carried out as described above for VEGF-R2, except for the following changes in concentration: FGF-R = 50 nM, ATP = 2 mM, and poly(E4Y1) =15 mM.
# [4] = target: LCK tyrosine kinase (Homo sapiens, UniProt P06239, C224D/P223M); assay: LCK spectrophotometric assay; type: biochemical; details: Table 1; compound concentration 1 µM; read-out: Lck-P* (% inhibition)
# Protocol: The spectrophotometric assay was carried out as described above for VEGF-R2, except for the following changes in concentration: LCK = 60 nM, MgCl2 = 0 mM, poly(E4Y1) = 20 mM.
# [5] = tested on: human umbilical vein endothelial cells (HUVEC); assay: HUVEC proliferation assay (VEGF-stimulated, MTT); type: cell-based; details: Homo sapiens, HUVEC, Table 1
# [6] = in vitro; type: in vitro ADME, human; details: 2 h
# Summary of the method: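 HLM diluted to 5 mg/mL in 100 mM KPO4, preincubated 10 min at 37 °C with NADPH-regenerating system. Compound (5 µM final) incubated at 37 °C in triplicate, sampled at 0 and 2 h into ice-cold acetonitrile, then LC-MS analysis.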
# [7] = tested on: VEGF dependent retinal neovascularization; assay: Neonatal rat model of retinopathy of prematurity; type: in vivo; details: Model ROP
# Protocol: A second model of VEGF dependent retinal neovascularization was employed to evaluate the activities of this series of compounds. […] The animals are exposed for 24 hours to a concentration of 50% oxygen followed by 24 hours at a concentration of 10% oxygen. This alternating cycle of hyperoxia followed by hypoxia is repeated 7 times after which the animals are removed to room air (P14). Compounds are administered via intravitreal injection upon removal to room air and the animals are sacrificed 6 days later (P20). The isolated retinas are then isolated, stained mounted and analyzed as detail above in the development model. The effectiveness was also graded as is described for the development model.
# [8] = tested on: VEGF dependent retinal vascular development; assay: In vivo assay of retinal vascular development in neonatal rats; set-up: species or system rat; details: Model P8, intravitreal, 5 mg/ml, vehicle PEG/water 50:50
# Protocol: The development of the retinal vascular in rats occurs from postnatal day 1 to postnatal day 14 (P1-P14). […] To assess the ability of specific compounds to inhibit the activity of VEGF in vivo, compounds were formulated in an appropriate vehicle, usually 50% polyethylene glycol, average molecular weight 400 daltons, and 50% solution of 300 mM sucrose in deionized water. […] Six days after the intravitreal injection, the animals were sacrificed and the retinas dissected free from the remaining ocular tissue. […] The individual retinas are then flat-mount onto glass slides and examined to determine the extent of vascularization. […] The amount of vessel regression was used to assess the relative potency of the compounds after in vivo administration.
# For more quantitative analysis of regression, images of ADPase-stained, flat-mounted retinas were captured with a digital camera attached to a dissecting microscope. Retinal images were then imported into an image analysis software (Image Pro Plus 4.0, Media Cybernetics, Silver Spring, MD). The software was employed to determine the percentage of the area of the retina that contained stained vessels. This value for the experimental eye was compared to that measured for the vehicle injected, contralateral eye from the same animal. The reduction in the vascular area seen in the eye that received compound as compared to the vehicle-injected eye was then expressed as the "percent regression" for that sample.
# [9] = in vivo; details: mouse, plasma, pH 2.3
# [10] = Table 5, 1 µM, bold values spectrophotometric assay, non-bolded DELFIA assay (bold not visible here)
# [11] = + albumin, read-out: HUVEC + albumin IC50
# [12] = intravitreal, 1 mg/ml, vehicle PEG/water 70:30
# [13] = intravitreal, 5 mg/ml, vehicle PEG/water 70:30
# [14] = intravitreal, 10 mg/ml, vehicle PEG/water 70:30
# [15] = mouse, in vivo, ip, 25 mg/kg, pH 2.3
# [16] = mouse, in vivo, po, 50 mg/kg, pH 2.3
# Sequence of human FGF-R1 (P11362 456-766 L457V/C488A/C584S): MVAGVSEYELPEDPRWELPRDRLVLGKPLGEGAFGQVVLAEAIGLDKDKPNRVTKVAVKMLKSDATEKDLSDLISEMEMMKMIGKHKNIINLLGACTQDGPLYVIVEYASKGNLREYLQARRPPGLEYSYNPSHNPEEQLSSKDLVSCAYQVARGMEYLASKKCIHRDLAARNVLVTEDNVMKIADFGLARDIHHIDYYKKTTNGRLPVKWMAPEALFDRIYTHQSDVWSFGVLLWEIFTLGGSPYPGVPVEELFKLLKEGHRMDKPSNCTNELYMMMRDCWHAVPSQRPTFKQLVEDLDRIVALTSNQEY
# T2 sequence (Q02763 775-1122): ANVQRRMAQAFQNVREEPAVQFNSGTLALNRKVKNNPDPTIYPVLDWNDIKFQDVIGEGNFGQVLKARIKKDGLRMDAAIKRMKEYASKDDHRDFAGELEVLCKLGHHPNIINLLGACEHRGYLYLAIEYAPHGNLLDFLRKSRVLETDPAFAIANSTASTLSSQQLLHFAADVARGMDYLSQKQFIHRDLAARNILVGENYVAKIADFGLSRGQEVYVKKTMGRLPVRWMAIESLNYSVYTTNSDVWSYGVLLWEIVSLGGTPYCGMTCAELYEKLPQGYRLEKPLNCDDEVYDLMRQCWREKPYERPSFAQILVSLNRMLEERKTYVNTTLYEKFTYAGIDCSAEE
# Sequence of LCK tyrosine kinase (P06239 223-509 P223M/C224D): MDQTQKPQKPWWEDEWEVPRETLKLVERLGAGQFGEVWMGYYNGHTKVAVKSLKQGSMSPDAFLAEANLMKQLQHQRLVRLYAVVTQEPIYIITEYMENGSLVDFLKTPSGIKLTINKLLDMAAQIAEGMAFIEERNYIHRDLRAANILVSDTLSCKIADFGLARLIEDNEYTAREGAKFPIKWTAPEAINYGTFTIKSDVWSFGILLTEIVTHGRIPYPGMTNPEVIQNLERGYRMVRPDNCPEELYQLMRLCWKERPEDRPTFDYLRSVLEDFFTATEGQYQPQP
smiles,measurement,setting,value
"Brc1cccc(Oc2ccc3c(/C=C/c4ccccc4)n[nH]c3c2)c1 [8(d), 6-(3-Bromo-phenoxy)-3-styryl-1H-indaxole]",Ki,[1],82 nM
same,inhibition at 1 µM,[2],10%
"Cc1cccc(C(=O)Nc2cccc(N(C)c3ccc4c(/C=C/c5ccc6c(c5)OCO6)n[nH]c4c3)c2)c1 [16(b), N-(3-{[3-(2-Benzo[1,3]dioxol-5-yl-vinyl)-1H-indazol-6-yl]-methyl-amino}-phenyl)-3-methyl-benzamide]",inhibition at 1 µM,[3],73%
same,inhibition at 1 µM,[4],22%
same,inhibition at 1 µM,[2]; [10],52%
same,IC50,[5]; [11],140 nM
same,IC50,[5]; read-out: HUVEC IC50,4.7 nM
"CC(=O)c1cccc(C(=O)Nc2cccc(N(C)c3ccc4c(/C=C/c5ccc6c(c5)OCO6)n[nH]c4c3)c2)c1 [16(e), 3-Acetyl-N-(3-{[3-(2-benzo[1,3]dioxol-5-yl-vinyl)-1H-indazol-6-yl]-methyl-amino}-phenyl)-benzamide]",inhibition at 1 µM,[3],59%
same,inhibition at 1 µM,[4],8%
same,IC50,[5]; [11],106 nM
same,IC50,[5]; read-out: HUVEC IC50,4.9 nM
same,"remaining at 2 h, 5 µM","[6]; human liver microsomes, 5 µM test compound, 37 °C, read-out: % remain (HLM, 2 h)",40%
same,% Inhibition,[7]; [12],16%
same,% Inhibition,[7]; [13],36% and 37%
same,Initial Evaluation,[7]; [13],++ (two pluses being judged to be approximately 25-75 % regression)
same,% Inhibition,[7]; [14],54%
same,Initial Evaluation,[7]; [14],+++ (three pluses give to retinas with near total regression (approximately 75% or greater))
"CC(=O)Nc1cccc(C(=O)c2ccc3c(/C=C/c4ccccc4)n[nH]c3c2)c1 [19(a), N-[3-(3-Styryl-1H-indazole-6-carbonyl)-phenyl]-acetamide]",inhibition at 1 µM,[3],92%
same,inhibition at 1 µM,[4],16%
same,inhibition at 1 µM,[2]; [10],18%
same,IC50,[5]; read-out: HUVEC IC50,44 nM
"Cc1cnc(C(=O)Nc2cccc(C(=O)c3ccc4c(/C=C/c5ccccc5)n[nH]c4c3)c2)s1 [19(d), 5-Methyl-thiazole-2-carboxylic acid [3-(3-styryl-1H-indazole-6-carbonyl)-phenyl]-amide]",inhibition at 1 µM,[3],39%
same,inhibition at 1 µM,[4],33%
same,inhibition at 1 µM,[2]; [10],15%
same,IC50,[5]; [11],34 nM
same,IC50,[5]; read-out: HUVEC IC50,6.8 nM
O=C(c1cccc(NC(=O)c2cccc3[nH]ccc23)c1)c1ccc2c(/C=C/c3ccccn3)n[nH]c2c1 [41 (d)],% Inhibition,[7]; [12],0%
same,AUCleast,[15],10324 ng·h/mL
same,T1/2,[15],2.8 h
same,AUCleast,[16],7072 ng·h/mL
same,T1/2,[16],1.5 h
Cc1nc(/C=C/c2n[nH]c3cc(C(=O)c4cccc(NC(=O)c5ccccc5)c4)ccc23)cs1 [Example 42(c)],% Inhibition,[8],36%
"O=C(Nc1cccc(C(=O)c2ccc3c(/C=N/n4cccc4)n[nH]c3c2)c1)c1ccccc1 [Example 45(b), 6-(3-Benzamidobenzoyl)-3-E-[N-(pyrrol-1-yl)iminomethyl]-1H-indazole]","% remain (HLM, 2 h)","[6]; human, microsomes, 5 µM",97%
same,% Inhibition,[7]; [12],25%
same,% Inhibition,[7]; [14],60%
same,Initial Evaluation,[7]; [14],++ (two pluses being judged to be approximately 25-75 % regression)
"CCn1nc(C)cc1C(=O)Nc1cccc(C(=O)c2ccc3c(/C=C/c4ccccn4)n[nH]c3c2)c1.Cl [Example 59(a), 6-[3-((1-Ethyl-3-methyl-1H-pyrazol-5-yl)carboxamido)benzoyl]-3-E-[2-(pyridin-2-yl)ethenyl]-1H-indazole hydrochloride]",% Inhibition,"[7]; 1 mg/ml, vehicle 0.5%CMC",19%
same,% Inhibition,"[7]; 10 mg/ml, vehicle C.5%CMC",41%
same,T1/2,"mouse, in vivo, po, 25 mg/kg",1.6 h
Cc1ccc2cc(NC(=O)c3ccccc3Sc3ccc4c(/C=C/c5ccccn5)n[nH]c4c3)ccc2n1 [Reference Example 33(b)],inhibition at 1 µM,[3],77%
same,Initial Evaluation,[7]; [14],++ (two pluses being judged to be approximately 25-75 % regression)
same,T1/2,"IP, 25 mg/kg, vehicle PEG400:H2O pH 2.3 60:40",3.0 h
same,T1/2,"PO, 50 mg/kg, vehicle PEG400:H2O pH 2.3 60:40",3.0 h
same,AUC,"[9]; ip, 25 mg/kg",11200 ng·h/mL
same,AUC,"[9]; po, 50 mg/kg",3920 ng·h/mL
"Cc1ccc2cc(NC(=O)c3ccccc3Sc3ccc4c(/C=C/c5ccccc5)n[nH]c4c3)ccc2n1 [Reference Example 38(a), 6-[2-(2-Methylquinol-6-ylcarbamoyl)phenylsulfanyl]-3-E-(2-styryl)-1H-indazole]",inhibition at 1 µM,[3],74%
same,inhibition at 1 µM,[4],77%
same,Initial Evaluation,[7]; [12],+ (one plus being detectable regression judged to be approximately 25 percent or less)
same,Initial Evaluation,[7]; [14],+++ (three pluses give to retinas with near total regression (approximately 75% or greater))
"O=C(c1cccc(NC(=O)c2cccc3[nH]ccc23)c1)c1ccc2c(/C=C/c3ccccn3)n[nH]c2c1 [Reference Example 41(d), 6-[3-(indol-4-ylcarboxamido)benzoyl]-3-E-[2-(pyridin-2-yl)ethenyl]-1H-indazole]",IC50,[5]; [11],6.4 nM
same,IC50,[5]; read-out: HUVEC IC50,0.9 nM
same,% Inhibition,[7]; [14],59%
same,Initial Evaluation,[7]; [14],+++ (three pluses give to retinas with near total regression (approximately 75% or greater))
